SMILES strings stand for the structures.

Data set [1] concerns the target T1, B-isoform of the progesterone receptor (PR-B) (Homo sapiens, UniProt P06401).
T1 construct: HeLa cells were transfected as above but also with plasmids for full length wild; expressed in transfected cells; host or cells: HeLa
T1 sequence (P06401 1-933): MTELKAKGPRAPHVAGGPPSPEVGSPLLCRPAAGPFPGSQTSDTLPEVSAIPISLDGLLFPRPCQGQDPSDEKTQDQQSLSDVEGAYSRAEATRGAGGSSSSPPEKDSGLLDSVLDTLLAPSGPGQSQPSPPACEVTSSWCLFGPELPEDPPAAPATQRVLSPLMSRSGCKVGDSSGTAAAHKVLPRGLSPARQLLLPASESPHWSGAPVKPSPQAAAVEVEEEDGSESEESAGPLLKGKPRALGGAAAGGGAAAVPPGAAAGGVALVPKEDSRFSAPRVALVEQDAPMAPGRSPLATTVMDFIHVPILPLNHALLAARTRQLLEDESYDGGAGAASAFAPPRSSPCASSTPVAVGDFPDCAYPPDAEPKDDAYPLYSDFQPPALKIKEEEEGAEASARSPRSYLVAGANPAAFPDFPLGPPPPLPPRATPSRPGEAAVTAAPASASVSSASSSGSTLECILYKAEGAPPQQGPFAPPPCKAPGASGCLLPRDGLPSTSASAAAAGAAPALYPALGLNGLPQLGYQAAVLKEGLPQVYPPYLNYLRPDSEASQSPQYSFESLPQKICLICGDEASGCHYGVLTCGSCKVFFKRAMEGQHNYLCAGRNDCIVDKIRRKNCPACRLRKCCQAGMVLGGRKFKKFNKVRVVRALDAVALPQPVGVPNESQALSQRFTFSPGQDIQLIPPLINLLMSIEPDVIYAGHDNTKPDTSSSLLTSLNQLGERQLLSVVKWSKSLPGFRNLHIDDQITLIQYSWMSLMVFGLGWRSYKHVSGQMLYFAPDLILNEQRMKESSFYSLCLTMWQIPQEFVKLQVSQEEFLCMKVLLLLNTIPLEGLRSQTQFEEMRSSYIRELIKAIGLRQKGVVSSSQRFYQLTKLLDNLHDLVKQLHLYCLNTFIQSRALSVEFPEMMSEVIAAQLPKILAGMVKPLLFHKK
The data set is described as follows: PRE3X-TATA-Luc reporter in HeLa cells transfected with PR-B. The data set is classed as cell-based. To be noted: alone or + 500 nM MPA, 22 h. On the procedure:
representative experiment. […]
receptor (AR, (B)), glucocorticoid receptor (GR, (C)), and the B-isoform of the progesterone receptor (PR-B, (D)). HeLa cells were transfected with the designated wild type receptor along with reporter gene PRE3X-TATA-Luc, which is promiscuously activated with known agonists specific for each receptor: R1881 for AR, dexamethasone (Dex) for GR, and medroxyprogesterone acetate (MPA) for PR-B. Each receptor was also dosed with one concentration of known antagonist for each receptor: 32 nM bicalutamide for AR, and 500 nM RU486 for GR and PR. Transfected cells were treated with the designated ligands for 22 hours and luciferase activity assayed. Shown are representative experiments, independently performed at least 3 times. Note that curves for agonists for each receptor were performed in separate experiments. Shown are means with SEM, normalized to percent of 32 nM R1881 for AR, 32 nM Dex for GR, and 0.5 µM MPA for PR-B (except with MPA alone, which was normalized to […]
either ERα or ERβ, and 85 ng ERE-3x-Luc, containing 3 copies of estrogen-response element (ERE) cloned into pGL4.23 luciferase reporter gene containing a minimal TATA promoter […]
hours (1.25% total final charcoal dextran stripped FBS). Bright Glo luciferase reagent (Promega) […]

Data set [2] has as its system uterus of ovariectomized BALB/c mice. Nature of the data set: Uterine wet weight (uterotrophic assay) in ovariectomized BALB/c mice. The data set is classed as in vivo, mouse. The following applies: 100 mg/kg oral gavage daily for 3 days. An excerpt: Shown is a representative figure analyzed and presented as above.
To confirm that OP-1074 lacks agonist activity in the uterus, we tested it in ovariectomized BALB/c mice in a uterotrophic assay. […] Thus, OP-1074 is a pure antiestrogen in the mouse uterus.
Animals were euthanized and uteri dissected and weighed.

Data set [3] relates to MCF7/HER2/neu tumors. On the procedure: MCF7/HER2/neu cells were grown in culture and implanted into 6–7 week athymic ovariectomized female nu/nu mice (Taconic Biosciences). To stimulate tumor growth, 0.18 mg estradiol 90 day release pellets (Innovative Research) were implanted along with cells. […] Tumor volume and bodyweight were measured twice weekly. At end of the study animals were euthanized, tumors resected and snap frozen in liquid nitrogen, and uteri were resected, weighed, and fixed in 10% formalin.

The mark [4] stands for this setting: number of 10 tumors at end of study, OP-1074 100 mg/kg oral twice daily, fulvestrant 100 mg/kg subcutaneous daily.

`CC1=C(c2ccc(O)cc2)[C@H](c2ccc(OCCN3CC[C@@H](C)C3)cc2)Oc2cc(O)ccc21` [OP-1074]: the “Agonist and antagonist activity on PR-B” value in data set [1] was “lacks agonist and antagonist activity”. In data set [2] (absence of E2, OP-1074 as mixture of active and inactive diastereomers), the “Uterine wet weight, agonist mode” value is listed as “did not increase uterine wet weight”. The “Uterine wet weight, antagonist mode” value in data set [2] (co-treated with E2 subcutaneously) is “not significantly different from fulvestrant”. In data set [3] (nude mice, 100 mg/kg dosed twice a day by oral gavage), the Tolerability result is listed as “well-tolerated with no adverse effects on behavior or mouse bodyweight”. In data set [3] (setting [4]), the “Tumors shrunk / growth inhibited by >50%” value is on record as “all ten” and the “Tumors shrunk >80%” value was 9/10.

Source of the values: article PMC6006285, “Specific stereochemistry of OP-1074 disrupts estrogen receptor alpha helix 12 and confers pure antiestrogenic activity” (Nature Communications, 2018).
